Article PMC10747602, “Dose Response, Dosimetric, and Metabolic Evaluations of Replacement PFAS Perfluoro-(2,5,8-trimethyl-3,6,9-trioxadodecanoic) Acid (HFPO-TeA)” (Toxics, 2023)
“And” between values parts separate entries of the source, which are not always exact repeats. Equal values may be shown once.

Experiments:
human hepatocytes = experiment: Hepatocyte metabolic stability (clearance) assay, human hepatocytes; settings: for Negative Control Data, No cells (NC), Ln Concentration / Negative Control Data, Heat Treated (HT), Ln Concentration / Ln Concentration: Rep 1-3
Method: (§1) Information on the chemicals and materials used in the hepatocyte metabolic work can be found in Supplementary Text S9 and Table S3. In vitro evaluations of hepatocyte metabolic stability were performed in human and rat hepatocytes, as previously described. Briefly, pooled, cryopreserved hepatocyte suspensions were thawed, assessed for viability, and then diluted in William’s medium E containing dexamethasone and cell maintenance cocktail B to achieve a cell density of 50,000 cells/100 µL. The assay was started by adding hepatocyte suspensions to wells of 96-well polypropylene plates containing an equal volume of media with 2 µM of analyte (final assay concentration: 1 µM). Plates were placed in a 37 °C cell culture incubator (5% CO2) on a shaker set to 200 rpm. Time points assessed were T0, T15, T30, T60, T120, and T240 min. At each time point, the plates were removed from the shaker and the incubates were crashed with an equal volume of ice-cold ACN containing 1.2% FA and 16 ng/mL of ^13C3 -HFPO-DA. After chilling and centrifugation at 4122× g, the supernatants were transferred to new collection plates and stored at −70 °C until analysis for the parent compound on the Waters instrumentation described below. Immediately prior to analysis, samples were thawed, vortexed, and centrifuged at 4200× g, and then diluted 1:4 in 95:5 H2O/ACN with 2.5 mM of ammonium acetate. Negative controls, including no cell controls and metabolically inactivated hepatocytes, were run concurrently to assess the chemical stability over the time course.
(§2) Intrinsic clearance (Clint; hepatic clearance) calculations are detailed in Supplementary Text S9 [57].
(§3) Targeted, quantitative analysis of in vitro hepatocyte metabolic stability and plasma protein binding assay samples was conducted on a Waters Xevo-TQS micro mass spectrometer (Waters, Milford, MA, USA) ultra-high-performance liquid chromatography tandem mass spectrometry system (UPLC-MS/MS), modified with a PFAS analysis kit. Samples were analyzed in negative ion mode with UniSpray ionization. A CORTECS T3 column (Waters CORTECS, 3 × 100 mm, particle size 2.7 µm) was used for chromatographic separation with a flow rate of 0.6 mL/min and a temperature of 55 °C. Gradient elution was used with eluent A (95:5 H2O/ACN) and eluent B (95:5 ACN/H2O) with 2.5 mM of ammonium acetate. The gradient is available in Table S11. Additional details for MS parameters are found in Table S12 and monitored transitions are found in Table S13.
(§4) Table S2: Data processing parameters used with Sciex MarkerView 1.3.1.
(§5) Support ing Text S9: Hepatocyte Metabolic Stability Assay Materials, Chemicals, and Calculations
(§6) Pooled human and rat cryopreserved primary hepatocyte suspensions were both obtained from
(§7) BioIVT, a US Food and Drug Administration-licensed and inspected donor center, and produced using
(§8) non-transplantable tissue.
(§9) William’s E media, dexamet hasone (98% pure), and cell maintenance cocktail B were obtained from
(§10) Thermo Fisher Scientific (Waltham, MA, USA), the OptiThaw hepatocyte kit from Sekisui/Xenotech
(§11) (Tokyo, Japan), and the trypan blue s (Sekisui/ Xenotech, Tokyo, Japan) and the trypan blue solution from […]

rat hepatocytes = experiment: Hepatocyte metabolic stability (clearance) assay, rat hepatocytes
Method: as §1, §2, §3, §4, §5, §6, §7, §8, §9, §10, §11

[1] = In vitro-in vivo extrapolation (IVIVE) to estimate Css, human
Method: (§12) Fraction unbound (fu) in plasma (fup) and percent stability calculations are detailed in Supplementary Text S10. Hepatic clearance, the fu in blood (fub) (fu in plasma adjusted for blood:plasma partitioning), and renal clearance were used to derive the steady-state concentration (Css) of each compound that will be used for in vitro–in vivo extrapolation (IVIVE). Renal clearance was calculated using the glomerular filtration rate (a species-dependent constant) and the fub. The Css calculation is detailed in Supplementary Text S11.
(§13) Linear regression analysis in conjunction […]
(§14) cells in the Clint equation. […]
(§15) concentration by the T300 min concentration (Equation E). Chemical stability in plasma was assessed […]
(§16) (F) Percent Stability = T300minutesT60minutes∗100 […]
(§17) blood (fub) of the parent compound. The Clhepatic calculation is shown in the second part of the denominator of Equation G; it is the product of the species dependent liver blood flow constant, the fub of the parent compound, and the experimentally derived intrins ic clearance (s hown in Equation D) divided by the sum these three values. All values used in Equation G are for first order conditions of metabolism in the liver. All calculations, scalars, and species dependent values used to conduct the Css calculation to facilitate in vitro-in vivo extrapolation (IVIVE) are provided Table S19 within the Excel worksheet, the tab […]
(§18) Based on the principle of reverse dosimetry, the Css values derived from IVIVE will be u sed as conversion factors to generate AEDs according to Equation H. In this equation, the AED is linearly related to the in vitro concentration and inversely related to the Css. It is only valid for first-order metabolism that is expected at ambient exposure levels.
(§19) (H) AED ൮ mgkg൲ = in vitro concentration (µM )

[2] = In vitro-in vivo extrapolation (IVIVE) to estimate Css, rat
Method: as §12, §13, §14, §15, §16, §17, §18, §19

## O=C(O)C(F)(OC(F)(F)C(F)(OC(F)(F)C(F)(F)C(F)(F)F)C(F)(F)F)C(F)(F)F (stereo not shown) [HFPO-TA, perfluoro-(2,5-dimethyl-3,6-dioxanonanoic) acid]
Human hepatocytes; 1000 nM, 15 min
  Negative Control Data, No cells (NC), Ln Concentration: 4.3597 and 5.0085 and 5.1884
Human hepatocytes; 1000 nM, 240 min
  Negative Control Data, No cells (NC), Ln Concentration: 3.9371 and 3.9316 and 3.8367
Human hepatocytes; human hepatocytes, 1 µM
  Clin vitro: 0 µL/min/106 cells
Human hepatocytes; human hepatocytes, 1000 nM, 15 min
  Negative Control Data, Heat Treated (HT), Ln Concentration: 4.3597 and 5.0085 and 5.1884
Human hepatocytes; human hepatocytes, 1000 nM, 240 min
  Negative Control Data, Heat Treated (HT), Ln Concentration: 4.9004 and 4.9391 and 4.9107
Human hepatocytes; human hepatocytes, 1000 nM, time 0 min
  Ln Concentration: 3.4977 and 3.5184 and 3.3762
Human hepatocytes; human hepatocytes, 1000 nM, time 15 min
  Ln Concentration: 4.0516 and 4.0675 and 3.8232
Human hepatocytes; human hepatocytes, 1000 nM, time 30 min
  Ln Concentration: 3.7647 and 3.6457 and 3.2925
Human hepatocytes; human hepatocytes, 1000 nM, time 60 min
  Ln Concentration: 4.1190 and 4.0115 and 3.2249
Human hepatocytes; human hepatocytes, 1000 nM, time 120 min
  Ln Concentration: 4.2452 and 3.9281 and 3.6055
Human hepatocytes; human hepatocytes, 1000 nM, time 240 min
  Ln Concentration: 4.5149 and 4.7648 and 4.7557
Human hepatocytes; human hepatocytes, 1000 nM, time in min
  Linear Regression Best-Fit Slope (ln concentration vs time): 0.000858
Rat hepatocytes; heat treated rat hepatocytes, 1000 nM, 15 min, Ln concentration, Rep 1-3
  Negative Control Data, Heat Treated (HT), 15 min: 4.1725 and 4.8897 and 5.4522
Rat hepatocytes; heat treated rat hepatocytes, 1000 nM, 240 min, Ln concentration, Rep 1-3
  Negative Control Data, Heat Treated (HT), 240 min: 4.9004 and 4.9391 and 4.9107
Rat hepatocytes; no cells, 1000 nM, 15 min, Ln concentration, Rep 1-3
  Negative Control Data, No cells (NC), 15 min: 4.1725 and 4.8897 and 5.4522
Rat hepatocytes; no cells, 1000 nM, 240 min, Ln concentration, Rep 1-3
  Negative Control Data, No cells (NC), 240 min: 3.9230 and 4.2019 and 3.8754
Rat hepatocytes; rat hepatocytes, 1 µM
  Clin vitro: 0 µL/min/106 cells
Rat hepatocytes; suspended rat hepatocytes, 1000 nM, time 0 min, Rep 1-3
  Ln Concentration, 0 min: 4.5979 and 4.6454 and 4.5374
Rat hepatocytes; suspended rat hepatocytes, 1000 nM, time 15 min, Rep 1-3
  Ln Concentration, 15 min: 4.8189 and 4.7145 and 4.8521
Rat hepatocytes; suspended rat hepatocytes, 1000 nM, time 30 min, Rep 1-3
  Ln Concentration, 30 min: 4.7856 and 4.6050 and 4.6111
Rat hepatocytes; suspended rat hepatocytes, 1000 nM, time 60 min, Rep 1-3
  Ln Concentration, 60 min: 4.8438 and 4.7495 and 4.8027
Rat hepatocytes; suspended rat hepatocytes, 1000 nM, time 120 min, Rep 1-3
  Ln Concentration, 120 min: 4.6843 and 4.6317 and 4.5468
Rat hepatocytes; suspended rat hepatocytes, 1000 nM, time 240 min, Rep 1-3
  Ln Concentration, 240 min: 4.7393 and 4.9247 and 4.8505
Rat hepatocytes; suspended rat hepatocytes, 1000 nM, time in min
  Linear Regression Best-Fit Slope (Ln concentration vs time): 0.0003164
[1]
  Clhep (hepatic clearance): 0 L/h
[1]; IVIVE, ID 0.042 mg/kg/hr, BW 70 kg
  Css: 186.41 µg/mL
[1]; IVIVE, intake dosage 1 mg/kg/day, BW 70 kg
  Css (steady-state concentration, plasma): 375.76 µM and 375.7648 µM
[1]; blood, fub=fup/(1-hemocrit ref value), hematocrit 0.45
  fraction unbound: 0.0024
[1]; scaled (HPGL 110, Vl 1596 g)
  Clint: 0 µL/min
[2]
  Clhep (hepatic clearance): 0 L/h
[2]; IVIVE, ID 0.042 mg/kg/hr, BW 0.25 kg
  Css: 40.60 µg/mL
[2]; IVIVE, intake dosage 1 mg/kg/day, BW 0.25 kg
  Css (steady-state concentration, plasma): 81.84 µM and 81.8399 µM
[2]; Sprague Dawley, blood, fub=fup/(1-hemocrit ref value), hematocrit 0.439
  fraction unbound at 300 min: 0.0032
[2]; scaled (HPGL 117, Vl 9.5 g)
  Clint: 0 µL/min
